{"source": "patent US5541310A", "about": "“Herbicide resistant plants” (Ciba-Geigy Corporation, priority 1994, dated 1996)", "key": {"wheat germ IGPD": {"tested_on": "wheat germ IGPD", "assay": "IGPD enzyme activity / inhibitor assay with purified wheat germ IGPD", "assay_type": "biochemical", "method": "Purified IGPD may be used in assays to discover novel inhibitors of the enzyme, which inhibitors potentially would function as commercially viable herbicides. Typically, the inhibitory effect of a chemical on IGPD is determined by the absorbance difference at 370 nm using an absorbance coefficient of 10,400, which signifies the production of IAP from IGP. See, Ames et al., J. Biol. Chem. 212:687-697 (1957). Inhibitor solutions in various concentrations, e.g. 1 mM, 100 μM, 10 μM, and 1 μM, are added to the reaction mixture prior to the initiation of the enzyme reaction. A representative reaction mixture contains 50 mM Bis-Tris-propane-HCl (pH 6.6), 100 mM 2-mercaptoethanol, 1 mM MnCl2, 1 mM IGP, and between 2 and 5 mU of IGPD. Once IGP is added, the reaction is rim at 30° C., and is stopped by the addition of perchlorie acid up to 10% volume of the reaction mixture. […] Five volumes of 5N NaOH are added to the solution, and after two minutes, enolized IA is measured spectroscopically. […]\nIGPD activity was determined by measuring imidazoleacetol obtained by hydrolyzing IAP. […] Five volumes of 5N NaOH were added to the solution, and after 2 minutes, the concentration of enolized imidazoleacetol was determined from the absorbance at 370 nm using the absorbance coefficient of 10,400 (Ames and Mitchell, 1955). […]"}, "[1]": {"tested_on": "IGPD-G (IGPD-overexpressing line)", "assay": "Greenhouse plants treated with inhibitor, health visually scored", "assay_type": "in vivo, Nicotiana tabacum cv. Xanthi-nc", "design": "key: 1 = severe stunting, severe chlorosis combined with necrosis; 2 = severe stunting, some interveinal chlorosis; 3 = moderate stunting, some interveinal chlorosis, pinnate leaves; 4 = moderate stunting, normal leaf morphology; 5 = healthy, with no symptoms", "method": "(§1) To further evaluate resistance of the IGPD-overexpressing line IGPD-G, plants were grown in the greenhouse and treated with various concentrations of the inhibitor IRL 1803. After treatment, plants were photographed, and their health was visually scored."}, "Xanthi (untransformed)": {"tested_on": "Xanthi (untransformed)", "assay": "Greenhouse plants treated with inhibitor, health visually scored", "assay_type": "in vivo, Nicotiana tabacum cv. Xanthi-nc", "design": "key: 1 = severe stunting, severe chlorosis combined with necrosis; 2 = severe stunting, some interveinal chlorosis; 3 = moderate stunting, some interveinal chlorosis, pinnate leaves; 4 = moderate stunting, normal leaf morphology; 5 = healthy, with no symptoms", "method": "as §1"}, "[2]": {"tested_on": "Leaf disks of transgenic Nicotiana tabacum lines IGPD-C, E, and G", "assay": "Leaf disk growth (weight) on MS agar containing IGPD inhibitor, transgenic lines versus wild type", "assay_type": "in vivo, Nicotiana tabacum cv. Xanthi-nc", "conditions": "30 ppm inhibitor on MS agar, after three weeks", "from_the_text": "Leaf disks of Nicotiana tabacum cv. Xanthi-nc were infected with A. tumefaciens CIB542 harboring pCIB200IGPD as described by Horsch et al, Science 227:1229 (1985). Kanamycin-resistant shoots from 15 independent leaf disks were transferred to rooting medium, then transplanted to soil and the resulting plants grown to maturity in the greenhouse. Seed from these plants were collected and germinated on MS agar medium containing kanamycin. Ten individual kanamycin resistant seedlings from each independent primary transformant were grown to maturity in the greenhouse, and their seed collected. These seeds were germinated on MS agar medium conta/ning kanamycin.\nPlant lines that gave rise to exclusively kanamycin resistant seedlings were homozygous for the inserted gene and were subjected to further analysis. Leaf disks of each of the 15 independent transgenie lines were excised with a paper punch and placed onto MS agar containing 0 or 30 ppm of a specific IGPD inhibitor represented by formula (II), namely: [drawing 11] After three weeks, two sets of 10 disks from each line were weighed, and the results recorded. Transgenie lines designated IGPD-C, E, and G were approximately 3-fold more resistant to the inhibitor than wild type, non-transformed plants."}}, "data": [{"smiles": "[Mn+2]", "note": "[manganese ions]", "values": [{"measurement": "enhancement of the activity of the enzyme", "setting": "wheat germ IGPD; manganese ions at a concentration of 0.5 mM", "result": 7, "unit": "fold"}, {"measurement": "Km", "setting": "wheat germ IGPD; read-out: Km value for Mn2+", "result": "~110", "unit": "µM"}]}, {"smiles": "O=P(O)(O)[C@@H]1CCC[C@](O)(c2ncn[nH]2)C1", "note": "[IRL 1803]", "values": [{"measurement": "Visual Score after Treatment", "setting": "[1]; 1000 ppm", "result": 4}, {"measurement": "Visual Score after Treatment", "setting": "[1]; 10000 ppm", "result": 2}, {"measurement": "Visual Score after Treatment", "setting": "Xanthi (untransformed); 1000 ppm", "result": 3}, {"measurement": "Visual Score after Treatment", "setting": "Xanthi (untransformed); 10000 ppm", "result": 1}]}, {"smiles": "O=P(O)(O)C1CCCC(O)(c2ncn[nH]2)C1", "note": "(stereo not shown)", "values": [{"measurement": "resistance to the inhibitor relative to wild type, non-transformed plants (leaf disk weight)", "setting": "[2]", "result": "approximately 3 fold"}]}]}
